In patent US10906929B2, “Phosphoramidate nucleoside derivatives as anticancer agents” (NuCana plc, priority 2016, dated 2021):

Key:
[1] = tested on: leukaemic stem cell compartment (Lin-/CD34+/CD38-/CD123+) within the KG1a cell line; test: Immunophenotypic identification of the leukaemic stem cell compartment; assay type: cell-based; settings: 72 h, LSC phenotype as percentage of all viable cells left, Control: 4%
Protocol: A further comparative analysis of the toxicity of compounds in the KG1a cell line over an extended dose range was carried out, and the relative effect assessed of the compounds on the leukaemic stem cell compartment within the KG1a cell line, across the entire dose range. Thus, experimental tests were performed on certain compounds of the present invention to assess their ability to target cancer stem cells in a leukaemic cell line. The acute myeloid leukaemia (AML) cell line, KG1a, was employed to assess the relative effect of compounds on the stem cell compartment. The KG1a cell line was selected because it manifests a minor stem cell-like compartment with a distinct immunophenotype (Lin^−/CD34^+/CD38^−/CD123^+).
(§1) Cells of the KG1a cell line were maintained in RPMI medium (Invitrogen, Paisley, UK) supplemented with 100 units/ml penicillin, 100 μg/ml streptomycin and 20% foetal calf serum. Cells were subsequently aliquoted (10^5 cells/100 μl) into 96-well plates and were incubated at 37° C. in a humidified 5% carbon dioxide atmosphere for 72 h in the presence of nucleoside analogues and their respective phosphoramidates at concentrations that were experimentally determined for each series of compounds. In addition, control cultures were carried out to which no drug was added. Cells were subsequently harvested by centrifugation and were analyzed by flow cytometry using the Annexin V assay.
KG1a cells were cultured for 72 h in the presence of a wide range of concentrations of each compound assayed. Cells were then harvested and labelled with a cocktail of anti-lineage antibodies (PE-cy7), anti-CD34 (FITC), anti-CD38 (PE) and anti-CD123 (PERCP cy5). The sub-population expressing a leukaemic stem cell (LSC) phenotype were subsequently identified and were expressed as a percentage of all viable cells left in the culture. […]

[2] = tested on: L1210 cells infected with Mycoplasma hyorhinis (HYOR); test: Cytostatic activity in mycoplasma-infected cells; assay type: cell-based, mouse
Text: (§2) Tumor cell cultures were infected with M. hyorhinis (ATCC 17981) and after two or more passages (to avoid bias by the initial inoculum) successful infection was confirmed using the MycoAlert™ mycoplasma detection kit (Lonza, Basel, Switzerland). Although this assay is only semi-quantitative, a maximal infection was observed 3 to 4 days after subcultivation of the mycoplasma-exposed cells. Chronically infected tumor cell lines are further referred to as Cell line.Hyor. All tumor cell cultures were maintained in Dulbecco's modified Eagle's medium (DMEM) (Invitrogen) supplemented with 10% fetal bovine serum (Biochrom AG, Berlin, Germany), 10 mm HEPES, and 1 mm sodium pyruvate (Invitrogen). Cells were grown at 37° C. in a humidified incubator with a gas phase containing 5% CO2.
(§3) The cytostatic activity of the test compounds was examined in mycoplasma-infected and uninfected cancer cell lines. When assaying the effect of M. hyorhinis infection, monolayer MCF7 and MCF7.Hyor cells were seeded in 48-well microtiter plates (Nunc™, Roskilde, Denmark) at 10,000 cells/well (Corning Inc., Corning, N.Y.) […]. After 24 h, the cells were exposed to different concentrations of test compound and allowed to proliferate for 72 h (to ensure sufficient cell proliferation and mycoplasma growth) after which the cells were trypsinized and counted using a Coulter counter (Analis, Suarlée, Belgium). Suspension cells (L1210, L1210.Hyor, FM3A, and FM3A.Hyor) were seeded in 96-well microtiter plates (Nunc) at 60,000 cells/well in the presence of different concentrations of test compound. The cells were allowed to proliferate for 48 h and then counted using a Coulter counter. The 50% inhibitory concentration (IC50) was defined as the compound concentration required to reduce cell proliferation by 50%.

[3] = tested on: MCF7 cells infected with Mycoplasma hyorhnis (HYOR); test: Cytostatic activity in mycoplasma-infected cells; assay type: cell-based, human
Text: as §2, §3

KG1a cell line = test: Annexin V/propidium iodide apoptosis assay; assay type: cell-based; settings: 72 h, dose required to kill 50% of the cells
Protocol: as §1
Measurement of in vitro apoptosis. Cultured cells were harvested by centrifugation and then resuspended in 195 μl of calcium-rich buffer. Subsequently, 5 μl of Annexin V (Caltag Medsystems, Botolph Claydon, UK) was added to the cell suspension and cells were incubated in the dark for 10 mins prior to washing. Cells were finally resuspended in 190 μl of calcium-rich buffer together with 10 μl of propidium iodide. Apoptosis was assessed by dual-colour immunofluorescent flow cytometry as described previously. Subsequently LD50 values (the dose required to kill 50% of the cells in a culture) were calculated for each nucleoside analogue and phosphoramidate.
The data obtained in these experiments were evaluated using one way ANOVA. All data was confirmed as Gaussian or a Gaussian approximation using the omnibus K2 test. LD50 values were calculated from the non-linear regression and line of best-fit analysis of the sigmoidal dose-response curves. All statistical analyses were performed using Graphpad Prism 6.0 software (Graphpad Software Inc., San Diego, Calif.).

[4] = tested on: RL Non-Hodgkin's lymphoma; test: In vitro viability assay, CellTiterGlo; assay type: cell-based; settings: CellTiterGlo, 72 h
Protocol: (§4) In vitro viability assay was performed to assess the effects of compounds on cell viability in selected cell lines over 72 h using the CellTiterGlo (CTG, Promega-G7573) assay. The tests were performed in duplicates with treatment of compounds at 9 points, 3.16 folds titration in 96 well plates over ˜72 h. The compound starting concentrations were […]. Cell viability assay using CellTiterGlo in 96-well plate were performed. Compounds were dissolved to 40 mM with thawed 100% DMSO. Compounds were serially diluted at 3.16-fold in thawed DMSO, and warmed to 37° C. before being dissolved in media (2 μl+200 μl). After compounds were dissolved in media, media containing compounds were warmed to 37° C. in incubator and then compounds in media were added to cell plates (50 μl+50 μl) in duplicates. The compounds' final concentrations were from 198 μM to 19.9 nM. Solubility of all compounds was checked and recorded again, then the plates were transferred to CO2 tissue culture incubator immediately and incubated for 3 days. DMSO final concentration is 0.5%.

[5] = tested on: Z-138 Mantle cell lymphoma; test: In vitro viability assay, CellTiterGlo; assay type: cell-based; settings: Z-138, CellTiterGlo, 72 h
Protocol: as §4

[6] = tested on: HL-60 Promyelocytic leukaemia; test: In vitro viability assay, CellTiterGlo; assay type: cell-based; settings: HL-60, CellTiterGlo, 72 h
Protocol: as §4

[7] = tested on: HEL92.1.7 Erythroleukaemia; test: In vitro viability assay, CellTiterGlo; assay type: cell-based; settings: HEL92.1.7, CellTiterGlo, 72 h
Protocol: as §4

[8] = tested on: KG-1 Acute myelogenous leukaemia; test: In vitro viability assay, CellTiterGlo; assay type: cell-based; settings: KG-1, CellTiterGlo, 72 h
Protocol: as §4

[9] = Homo sapiens, read-out: EC50 (μM) Ab

## Nc1nc(Cl)nc2c1ncn2[C@H]1C[C@H](O)[C@@H](CO)O1 [Cladribine, cladribine, reference compound]
[1]
  Stem cell %: 6%
[2]; L1210/HYOR versus L1210
  Loss of potency: 8-fold
[2]; Mus musculus, L1210, 48 h, read-out: IC50 L1210/HYOR
  IC50: 3000 nM
[3]; Homo sapiens, MCF7, 72 h, read-out: IC50 MCF7/HYOR
  IC50: 9300 nM
[3]; MCF7/HYOR versus MCF7
  Loss of potency: 25-fold
KG1a cell line
  LD50: 0.18 μm
[4]
  Top Inhibition (%): 94.7%
[4]; [9]
  EC50: < 0.019 µM
[5]; [9]
  EC50: < 0.019 µM
[5]
  Top Inhibition (%): 99.7%
[6]
  Top Inhibition (%): 85%
[6]; [9]
  EC50: < 0.019 µM
[7]
  Top Inhibition (%): 97.4%
[7]; Homo sapiens, HEL 92.1.7, read-out: EC50 (μM) Ab
  EC50: < 0.019 µM
[8]; [9]
  EC50: 0.17 µM
[8]
  Top Inhibition (%): 93.5%
